Results: patent US20150197492A1, “NOVEL INDENO[1,2-c]QUINOLIN-11-ONE DERIVATIVES, PREPARATION METHOD AND APPLICATION THEREOF” (National Defense Medical Center, priority 2014, published 2015)

Key:
Format in all cases: cell-based
[1] = system: NCI-H522; assay: cells; conditions: NCI-H522 (Non-Small Cell Lung Cancer), 10 μM, 48 hours
[2] = system: MCF7; assay: cells; conditions: MCF7 (Breast Cancer), 10 μM, 48 hours
[3] = system: HL-60 (TB); assay: cells; conditions: HL-60 (TB) (Leukemia), 10 μM, 48 hours
[4] = system: SNB-19; assay: cells; conditions: SNB-19 (CNS Cancer), 10 μM, 48 hours
[5] = system: SK-MEL-5; assay: cells; conditions: SK-MEL-5 (Melanoma), 10 μM, 48 hours
[6] = system: U251; assay: cells; conditions: U251 (CNS Cancer), 10 μM, 48 hours
[7] = system: MDA-MB-231/ATCC; assay: cells; conditions: MDA-MB-231/ATCC (Breast Cancer), 10 μM, 48 hours
[8] = system: SK-MEL-28; assay: cells; conditions: SK-MEL-28 (Melanoma), 10 μM, 48 hours
[9] = system: DU-145; assay: cells; conditions: DU-145 (Prostate Cancer), 10 μM, 48 hours
[10] = system: ACHN; assay: cells; conditions: ACHN (Renal Cancer), 10 μM, 48 hours
[11] = system: SK-OV-3; assay: cells; conditions: SK-OV-3 (Ovarian Cancer), 10 μM, 48 hours
[12] = system: A549/ATCC; assay: cells; conditions: A549/ATCC (Non-Small Cell Lung Cancer), 10 μM, 48 hours
[13] = system: 55 to 60 cancer cell lines; conditions: 10 μM, 48 hours, all tested cell lines
[14] = system: SW-620; assay: cells; conditions: SW-620 (Colon Cancer), 10 μM, 48 hours
[15] = system: MDA-MB-435; assay: cells; conditions: MDA-MB-435 (Melanoma), 10 μM, 48 hours
[16] = system: human PC-3 cells; assay: Sulforhodamine B (SRB) assay, cytotoxicity against PC-3 cells; conditions: SRB assay, PC-3 cells
In short: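 PC-3 cells in 5% FBS were fixed with 10% TCA after 24 h as T0, then treated with compound for 48 h, fixed, stained with 0.4% SRB in 1% acetic acid and solubilized in 10 mmol/L Trizma base. Absorbance was read at 515 nm. GI% = 100−[(Tx−T0)/(C−T0)]×100, and IC50 is the concentration halving total protein.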

[17] = system: NCI-H460; assay: cells; conditions: NCI-H460 (Non-Small Cell Lung Cancer), 10 μM, 48 hours
[18] = system: IGROV1; assay: cells; conditions: IGROV1 (Ovarian Cancer), 10 μM, 48 hours
[19] = system: HOP-62; assay: cells; conditions: HOP-62 (Non-Small Cell Lung Cancer), 10 μM, 48 hours
[20] = system: BT-549; assay: cells; conditions: BT-549 (Breast Cancer), 10 μM, 48 hours
[21] = system: 786-0; assay: cells; conditions: 786-0 (Renal Cancer), 10 μM, 48 hours
[22] = system: OVCAR-4; assay: cells; conditions: OVCAR-4 (Ovarian Cancer), 10 μM, 48 hours
[23] = system: UACC-257; assay: cells; conditions: UACC-257 (Melanoma), 10 μM, 48 hours
[24] = system: TK-10; assay: cells; conditions: TK-10 (Renal Cancer), 10 μM, 48 hours
[25] = system: CCRF-CEM; assay: cells; conditions: CCRF-CEM (Leukemia), 10 μM, 48 hours
[26] = system: SF-295; assay: cells; conditions: SF-295 (CNS Cancer), 10 μM, 48 hours
[27] = system: CAKI-1; assay: cells; conditions: CAKI-1 (Renal Cancer), 10 μM, 48 hours
[28] = system: NCI-H23; assay: cells; conditions: NCI-H23 (Non-Small Cell Lung Cancer), 10 μM, 48 hours
[29] = system: SR; assay: cells; conditions: SR (Leukemia), 10 μM, 48 hours

## O=C1c2cc(Cl)ccc2-c2c(N3CCSCC3)nc3ccccc3c21 [SJ-9, 9-Chloro-6-thiomorpholino-11H-indeno[1,2-c]quinolin-11-one]
[1]
  growth percentage: 92.76%
[2]
  growth percentage: 49.61%
[3]
  growth percentage: 94.50%
[4]
  growth percentage: 113.43%
[5]
  growth percentage: 89.52%
[6]
  growth percentage: 111.96%
[7]
  growth percentage: 93.08%
[8]
  growth percentage: 110.84%
[9]
  growth percentage: 106.04%
[10]
  growth percentage: 86.42%
[11]
  growth percentage: 84.60%
[12]
  growth percentage: 104.35%
[13]
  Mean (mean growth percentage of the tested cancer cell lines): 94.75%
[14]
  growth percentage: 91.88%
[15]
  growth percentage: 107.70%
[16]
  Toxicity (%): 33.3%
[16]; 10 μM
  GI % (10 μM): 100%
[17]
  growth percentage: 93.32%
[18]
  growth percentage: 72.45%
[19]
  growth percentage: 78.17%
[20]
  growth percentage: 92.91%
[21]
  growth percentage: 99.53%
[22]
  growth percentage: 98.19%
[23]
  growth percentage: 107.44%
[24]
  growth percentage: 121.79%
[25]
  growth percentage: 105.04%
[26]
  growth percentage: 93.33%
[27]
  growth percentage: 82.68%
[28]
  growth percentage: 94.33%
[29]
  growth percentage: 99.53%
